Laboratory results from patent US8916565B2, “Pyrrolopyrazine-spirocyclic piperidine amides as modulators of ion channels” (priority 2011, dated 2014).
pIC50: −log10 of the molar value.

Target: human NaV subtype, like NaV 1.7 (Homo sapiens, UniProt Q15858)
Assay: E-VIPR optical membrane potential assay with electrical stimulation
Type: cell-based
Settings: active against one or more sodium channels; Table 3 does not name the assay or NaV subtype; read-out: Binned Activity Data (IC50)

Chain of human NaV subtype, like NaV 1.7 (Q15858 whole entry): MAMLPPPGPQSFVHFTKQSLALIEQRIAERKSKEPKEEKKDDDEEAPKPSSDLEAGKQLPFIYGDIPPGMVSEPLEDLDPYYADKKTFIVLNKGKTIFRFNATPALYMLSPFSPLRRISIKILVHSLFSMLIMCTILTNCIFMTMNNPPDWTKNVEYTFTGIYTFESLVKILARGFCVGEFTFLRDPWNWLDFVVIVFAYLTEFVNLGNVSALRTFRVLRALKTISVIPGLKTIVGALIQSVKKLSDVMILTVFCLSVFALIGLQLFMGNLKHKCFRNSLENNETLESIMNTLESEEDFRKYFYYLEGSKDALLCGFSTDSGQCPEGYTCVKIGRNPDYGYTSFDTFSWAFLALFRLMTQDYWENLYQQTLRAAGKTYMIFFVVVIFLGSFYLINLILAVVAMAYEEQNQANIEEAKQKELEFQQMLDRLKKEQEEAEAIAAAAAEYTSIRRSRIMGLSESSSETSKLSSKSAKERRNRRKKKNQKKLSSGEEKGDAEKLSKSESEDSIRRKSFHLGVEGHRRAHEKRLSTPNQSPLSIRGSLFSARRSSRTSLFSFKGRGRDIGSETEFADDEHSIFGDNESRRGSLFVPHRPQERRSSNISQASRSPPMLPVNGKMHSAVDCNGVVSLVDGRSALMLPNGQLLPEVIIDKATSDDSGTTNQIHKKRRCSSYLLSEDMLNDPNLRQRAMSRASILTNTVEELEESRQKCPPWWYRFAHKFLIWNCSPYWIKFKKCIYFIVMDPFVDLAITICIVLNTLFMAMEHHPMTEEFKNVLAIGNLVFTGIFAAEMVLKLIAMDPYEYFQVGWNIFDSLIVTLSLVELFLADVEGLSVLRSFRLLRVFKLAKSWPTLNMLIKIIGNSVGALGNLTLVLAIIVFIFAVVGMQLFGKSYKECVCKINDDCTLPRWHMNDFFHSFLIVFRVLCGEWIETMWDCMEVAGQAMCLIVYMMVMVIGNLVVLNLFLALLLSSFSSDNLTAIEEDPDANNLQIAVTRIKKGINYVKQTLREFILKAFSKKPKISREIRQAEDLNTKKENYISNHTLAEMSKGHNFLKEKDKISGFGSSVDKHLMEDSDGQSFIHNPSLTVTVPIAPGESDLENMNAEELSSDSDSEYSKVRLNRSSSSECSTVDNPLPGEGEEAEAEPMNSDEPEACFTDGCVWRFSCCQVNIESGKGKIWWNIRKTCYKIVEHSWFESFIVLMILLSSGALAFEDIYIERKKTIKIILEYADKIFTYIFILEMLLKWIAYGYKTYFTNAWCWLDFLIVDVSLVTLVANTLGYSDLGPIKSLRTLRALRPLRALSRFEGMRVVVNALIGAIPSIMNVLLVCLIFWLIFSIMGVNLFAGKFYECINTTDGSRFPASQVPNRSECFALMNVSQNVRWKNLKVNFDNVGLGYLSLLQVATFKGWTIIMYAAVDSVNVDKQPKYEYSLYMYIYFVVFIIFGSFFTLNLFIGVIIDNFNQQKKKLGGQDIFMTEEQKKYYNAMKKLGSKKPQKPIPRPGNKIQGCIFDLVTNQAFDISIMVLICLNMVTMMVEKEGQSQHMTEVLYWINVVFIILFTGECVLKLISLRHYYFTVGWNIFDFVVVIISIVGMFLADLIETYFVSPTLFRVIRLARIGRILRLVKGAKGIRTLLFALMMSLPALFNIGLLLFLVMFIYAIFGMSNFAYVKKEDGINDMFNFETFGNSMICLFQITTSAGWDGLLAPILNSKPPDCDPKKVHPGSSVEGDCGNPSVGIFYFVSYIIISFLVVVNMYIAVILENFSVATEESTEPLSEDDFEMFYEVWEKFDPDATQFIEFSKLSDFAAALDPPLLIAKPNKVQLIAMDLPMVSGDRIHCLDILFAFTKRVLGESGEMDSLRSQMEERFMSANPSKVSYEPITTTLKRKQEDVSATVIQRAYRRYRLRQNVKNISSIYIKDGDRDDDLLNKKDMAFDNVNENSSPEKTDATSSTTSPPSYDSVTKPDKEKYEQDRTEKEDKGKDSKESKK

SMILES	pIC50
CN1CCn2c(C(=O)C(F)(F)F)ccc2C12CCN(C(=O)c1ccc(O)c(C(F)(F)F)c1)CC2 [Compound 733]	≥ 5.70
COc1ccc(C(=O)N2CCC3(CC2)c2ccc(C(=O)C(C)C)n2CCN3C)cc1C(F)(F)F [Compound 735]	≥ 5.70
CC(=O)c1ccc2n1CCN(C)C21CCN(C(=O)c2ccc(C(OCC(F)(F)F)OCC(F)(F)F)c(Cl)c2)CC1 [Compound 739]	< 5.30
CCOC(=O)N1CCn2c(C(F)(F)F)ccc2C12CCN(C(=O)c1ccc(OC(C)C)c(OC)c1)CC2 [Compound 741]	≥ 5.70
COc1cc(C(=O)N2CCC3(CC2)c2c(C#N)cc(C(F)(F)F)n2CCN3C)ccc1OC(C)C [Compound 742]	5.30 to 5.70
CN1CCn2c(ccc2C(F)(F)C(F)(F)F)C12CCN(C(=O)c1ccc(C(C)(C)O)cc1)CC2 [Compound 743]	≥ 5.70
CC[C@@H](C)Oc1ccc(C(=O)N2CCC3(CC2)NCCn2c(C(F)(F)F)ccc23)cc1OC [Compound 745]	≥ 5.70
COc1ccc(C(=O)N2CCC3(CC2)c2ccc(C(=O)C(F)(F)F)n2CCN3C)nc1C [Compound 746]	≥ 5.70
CN1CC(C)(C)n2c(C(=O)C(F)(F)F)ccc2C12CCN(C(=O)c1ccc(C(C)(C)O)c(F)c1)CC2 [Compound 748]	< 5.30
Cc1cc(C(=O)N2CCC3(CC2)c2ccc(Cl)n2CCN3C)ccc1S(=O)(=O)C(C)C [Compound 750]	< 5.30

Further lines, results first:

pIC50	SMILES
5.30 to 5.70	Cc1ccnc2c(C(=O)N3CCC4(CC3)c3ccc(C(F)(F)F)n3CCN4C)cnn12 [Compound 731]
≥ 5.70	CC(=O)c1ccc2n1CCN(C)C21CCN(C(=O)c2ccc(OC(C)C)c(C(F)(F)F)c2)CC1 [Compound 732]
< 5.30	CC(=O)c1ccc2n1CCN(C)C21CCN(C(=O)c2ccc(OC(C)C)c(F)c2)CC1 [Compound 734]
≥ 5.70	COCCOc1ccc(C(=O)N2CCC3(CC2)c2c(F)cc(C(F)(F)F)n2CCN3C)cc1 [Compound 736]
≥ 5.70	CCNc1cc(C)nc2c(C(=O)N3CCC4(CC3)c3ccc(C(F)(F)F)n3CCN4C)cnn12 [Compound 737]
≥ 5.70	COc1ccc(C(=O)N2CCC3(CC2)NC(C)(C)Cn2c(C(=O)C(F)(F)F)ccc23)c(C)c1 [Compound 738]
≥ 5.70	CCCCc1ccc(C(=O)N2CCC3(CC2)c2ccc(C(=O)C(F)(F)F)n2CCN3C)cc1 [Compound 740]
≥ 5.70	CC(C)Oc1ccc(C(=O)N2CCC3(CC2)c2ccc(C(=O)C4CC4)n2CCN3C)cc1F [Compound 744]
≥ 5.70	COc1ccc(C(=O)N2CCC3(CC2)c2ccc(C(=O)C(F)(F)F)n2C(C)CN3C)cc1Cl (stereo not shown) [Compound 747]
5.30 to 5.70	CC(C)Oc1ccc(C(=O)N2CCC3(CC2)c2ccc(C(F)(F)F)n2C[C@@H](C)N3C)c(F)c1 [Compound 749]
≥ 5.70	C=C(C)Oc1ccc(C(=O)N2CCC3(CC2)c2ccc(C(F)(F)F)n2CCN3C)cc1OC [Compound 751]
≥ 5.70	CN1CCn2c(C(=O)C(F)(F)F)ccc2C12CCN(C(=O)c1ccc(S(=O)(=O)N(C)c3nccs3)cc1)CC2 [Compound 752]
